Assay results: publication PMC9090415, “Discovery of small molecule inhibitors of Plasmodium falciparum apicoplast DNA polymerase” (Journal of Enzyme Inhibition and Medicinal Chemistry, 2022)

Molecular target: T1, bacteriophage T4 DNA polymerase (Enterobacteria phage T4, UniProt P04415)
T1 construct: made in house
T1 sequence (P04415 1-898): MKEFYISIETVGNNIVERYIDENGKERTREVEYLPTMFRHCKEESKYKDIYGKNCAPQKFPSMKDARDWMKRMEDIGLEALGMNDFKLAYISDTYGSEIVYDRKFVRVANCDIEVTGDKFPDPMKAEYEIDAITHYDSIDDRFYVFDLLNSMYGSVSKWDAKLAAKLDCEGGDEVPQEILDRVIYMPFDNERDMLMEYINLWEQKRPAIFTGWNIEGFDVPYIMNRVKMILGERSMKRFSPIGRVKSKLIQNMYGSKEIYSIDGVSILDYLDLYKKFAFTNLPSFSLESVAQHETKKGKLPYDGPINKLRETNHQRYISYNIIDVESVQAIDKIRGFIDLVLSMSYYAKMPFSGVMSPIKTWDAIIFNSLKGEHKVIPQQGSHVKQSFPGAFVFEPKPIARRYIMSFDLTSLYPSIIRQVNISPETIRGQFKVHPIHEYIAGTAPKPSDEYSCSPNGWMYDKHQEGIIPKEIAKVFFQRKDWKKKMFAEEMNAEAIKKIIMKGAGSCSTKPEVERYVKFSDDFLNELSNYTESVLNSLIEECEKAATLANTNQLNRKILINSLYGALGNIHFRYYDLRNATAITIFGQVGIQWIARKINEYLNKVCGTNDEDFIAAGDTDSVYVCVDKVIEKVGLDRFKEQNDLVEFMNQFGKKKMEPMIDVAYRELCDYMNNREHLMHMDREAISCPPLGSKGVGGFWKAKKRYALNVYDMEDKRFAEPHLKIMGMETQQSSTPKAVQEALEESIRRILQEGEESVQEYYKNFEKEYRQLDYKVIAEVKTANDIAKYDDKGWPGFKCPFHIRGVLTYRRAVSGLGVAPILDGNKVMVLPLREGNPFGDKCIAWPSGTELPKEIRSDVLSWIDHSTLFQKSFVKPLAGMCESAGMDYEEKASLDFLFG
Experiment: Counter-screen against bacteriophage T4 DNA polymerase
Type: biochemical
Details: for % inhibition T4 10' 2.5 / % inhibition T4 10' 5 / % inhibition T4 10' 10 / % inhibition T4 10' 20 / % inhibition T4 10' 40 / % inhibition T4 10' 80: read at 10'
Procedure, shortened: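 IC50 values come from dose-response testing of each compound against T4 DNA polymerase. This B-family polymerase was purified in-house and used as the counter-screen.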

## N#Cc1c(O)nc(N2CCCCC2)nc1-c1ccc2c(c1)OCO2 [KU0083146]
DRC-1, concentration 2.5
  % inhibition T4 10' 2.5: -1.681%
DRC-1, concentration 5
  % inhibition T4 10' 5: -6.153%
DRC-1, concentration 10
  % inhibition T4 10' 10: -0.208%
DRC-1, concentration 20
  % inhibition T4 10' 20: -4.89%
DRC-1, concentration 40
  % inhibition T4 10' 40: 2.23%
DRC-1, concentration 80
  % inhibition T4 10' 80: 27.8578%
DRC-1, read at 70', concentration 2.5
  % inhibition T4 70' 2.5: -2.1541%
DRC-1, read at 70', concentration 5
  % inhibition T4 70' 5: -7.277%
DRC-1, read at 70', concentration 10
  % inhibition T4 70' 10: -0.8576%
DRC-1, read at 70', concentration 20
  % inhibition T4 70' 20: -6.699%
DRC-1, read at 70', concentration 40
  % inhibition T4 70' 40: -0.3941%
DRC-1, read at 70', concentration 80
  % inhibition T4 70' 80: 25.8853%
DRC-1, read at 130', concentration 2.5
  % inhibition T4 130' 2.5: -4.596%
DRC-1, read at 130', concentration 5
  % inhibition T4 130' 5: -9.967%
DRC-1, read at 130', concentration 10
  % inhibition T4 130' 10: -3.465%
DRC-1, read at 130', concentration 20
  % inhibition T4 130' 20: -8.629%
DRC-1, read at 130', concentration 40
  % inhibition T4 130' 40: -2.723%
DRC-1, read at 130', concentration 80
  % inhibition T4 130' 80: 26.2784%
DRC-2, concentration 2.5
  % inhibition T4 10' 2.5: 12%
DRC-2, concentration 5
  % inhibition T4 10' 5: 9%
DRC-2, concentration 10
  % inhibition T4 10' 10: -0.482%
DRC-2, concentration 20
  % inhibition T4 10' 20: -17%
DRC-2, concentration 40
  % inhibition T4 10' 40: -12%
DRC-2, concentration 80
  % inhibition T4 10' 80: -1.89%
DRC-2, read at 40', concentration 2.5
  % inhibition T4 40' 2.5: 13%
DRC-2, read at 40', concentration 5
  % inhibition T4 40' 5: 10%
DRC-2, read at 40', concentration 10
  % inhibition T4 40' 10: 2%
DRC-2, read at 40', concentration 20
  % inhibition T4 40' 20: -13%
DRC-2, read at 40', concentration 40
  % inhibition T4 40' 40: -9%
DRC-2, read at 40', concentration 80
  % inhibition T4 40' 80: 3.39%
DRC-2, read at 90', concentration 2.5
  % inhibition T4 90' 2.5: 13%
DRC-2, read at 90', concentration 5
  % inhibition T4 90' 5: 12%
DRC-2, read at 90', concentration 10
  % inhibition T4 90' 10: 2.84%
DRC-2, read at 90', concentration 20
  % inhibition T4 90' 20: -10%
DRC-2, read at 90', concentration 40
  % inhibition T4 90' 40: -5.54%
DRC-2, read at 90', concentration 80
  % inhibition T4 90' 80: 3.63%
DRC-2, read at 180', concentration 2.5
  % inhibition T4 180' 2.5: 12%
DRC-2, read at 180', concentration 5
  % inhibition T4 180' 5: 11%
DRC-2, read at 180', concentration 10
  % inhibition T4 180' 10: 4%
DRC-2, read at 180', concentration 20
  % inhibition T4 180' 20: -10%
DRC-2, read at 180', concentration 40
  % inhibition T4 180' 40: -6.49%
DRC-2, read at 180', concentration 80
  % inhibition T4 180' 80: 2.15%

## Cc1ccccc1C(=O)N1CCc2c(nc3cc(-c4ccccc4)[nH]n3c2=O)C1 [Molecule 41, Cc1ccccc1C(=O)N1CCc2c(C1)nc1n(c2=O)[nH]c(c1)c1ccccc1]
DRC-2, concentration 2.5
  % inhibition T4 10': 10%
  % inhibition T4 40': 10%
DRC-2, concentration 5
  % inhibition T4 10': 13%
  % inhibition T4 40': 13%
DRC-2, concentration 10
  % inhibition T4 10': 5%
  % inhibition T4 40': 5%
DRC-2, concentration 20
  % inhibition T4 10': -10%
  % inhibition T4 40': -10%
DRC-2, concentration 40
  % inhibition T4 10': -26%
  % inhibition T4 40': -26%
DRC-2, concentration 80
  % inhibition T4 10': -46%
  % inhibition T4 40': -46%

## CC(=O)c1cc2c(N)c(/C(N)=N/C#N)sc2nc1C [KU0015866]
DRC-2, concentration 2.5
  % inhibition T4 10': -16%
  % inhibition T4 40': -16%
  % inhibition T4 180': -20%
DRC-2, concentration 5
  % inhibition T4 10': -17%
  % inhibition T4 40': -17%
  % inhibition T4 90': -16%
  % inhibition T4 180': -23%
DRC-2, concentration 10
  % inhibition T4 10': -18%
  % inhibition T4 40': -18%
  % inhibition T4 90': -18%
DRC-2, concentration 20
  % inhibition T4 10': -17%
  % inhibition T4 40': -17%
  % inhibition T4 90': -18%
  % inhibition T4 180': -23%
DRC-2, concentration 40
  % inhibition T4 10': -11%
  % inhibition T4 40': -11%
  % inhibition T4 90': -11%
  % inhibition T4 180': -16%
DRC-2, concentration 80
  % inhibition T4 10': -21%
  % inhibition T4 40': -21%
  % inhibition T4 90': -20%
